Experimental data: patent US12274774B2, “Cosmetic composition derived from natural products for improving skin health” (SEOUL NATIONAL UNIVERSITY R&DB FOUNDATION, priority 2021, dated 2025)

How the values were obtained:
[1] = system: Human-derived normal fibroblasts; assay: Cell proliferation efficacy (MTT method); format: cell-based; details: 10 μM, 72 hours culture, FIG. 1
Description: • 1) Human-derived normal fibroblasts were cultured. • 2) The cells were inoculated in an appropriate number, and after 24 hours, starvation was performed for 24 hours. • 3) The cells were cultured for 72 hours in media treated with samples at different concentrations, respectively. • 4) Cell activity was measured and analyzed by the MTT method.

[2] = Antioxidant efficacy (DPPH assay); format: biochemical; details: 1 μM to 50 μM, absorbance at 517 nm, FIG. 2
Description: • 1) 115 μL of 70% ethanol was dispensed to each of 96 wells. • 2) 5 μL of each sample and positive control was dispensed, and the absorbance was measured at 517 nm to measure the absorbance before the reaction. • 3) 80 μL of a DPPH solution was dispensed. • 4) After the reaction, the absorbance was measured at 517 nm, and the result was analyzed by using the absorbance values before and after the reaction.

B16F10 cells [3] = assay: Whitening efficacy: inhibition of B16F10 intracellular melanin synthesis; format: cell-based; details: 10 μM to 50 μM, α-MSH treated B16F10 cells, 72 hours, FIG. 3
Description: • 1) B16F10 cells were cultured. • 2) The cells were inoculated in an appropriate number, and after 24 hours, all groups except blank were treated with α-MSH and samples, respectively. • 3) The cells were cultured for 72 hours in culture media treated with respective samples. • 4) The cells were lysed, the supernatant was separated, and the absorbance value of the supernatant was measured. • 5) The amount of protein in each supernatant was measured and analyzed by the BCA method. • 6) The melanin synthesis value measured in the supernatant was corrected into the amount of protein to calculate the amount of melanin synthesis per unit cell.

B16F10 cells [4] = assay: Whitening efficacy: inhibition of B16F10 extracellular melanin synthesis; format: cell-based; details: 10 μM to 50 μM, α-MSH treated B16F10 cells, 72 hours, culture media, FIG. 4
Description: • 1) B16F10 cells were cultured. • 2) The cells were inoculated in an appropriate number, and after 24 hours, all groups except blank were treated with α-MSH and samples, respectively. • 3) The cells were cultured for 72 hours in culture media treated with respective samples. • 4) The absorbance values of the cell culture media were measured. • 5) The cells were lysed, the supernatant was separated, and the amount of protein was measured by the BCA method to correct the amount of melanin synthesis. • 6) The measured melanin synthesis value was corrected into the amount of protein to calculate the amount of melanin synthesis per unit cell.

[5] = biological target: T1, tyrosinase (melanin synthase) (Homo sapiens, UniProt P14679); assay: Whitening efficacy: inhibition of tyrosinase activity in pigment cells; format: cell-based; details: 1 μM to 50 μM, human-derived normal pigment cells, 72 hours, FIG. 5
T1 construct: The cells were lysed, the supernatant was separated; endogenous in cells; host or cells: human-derived normal pigment cells
T1 sequence (P14679 19-529): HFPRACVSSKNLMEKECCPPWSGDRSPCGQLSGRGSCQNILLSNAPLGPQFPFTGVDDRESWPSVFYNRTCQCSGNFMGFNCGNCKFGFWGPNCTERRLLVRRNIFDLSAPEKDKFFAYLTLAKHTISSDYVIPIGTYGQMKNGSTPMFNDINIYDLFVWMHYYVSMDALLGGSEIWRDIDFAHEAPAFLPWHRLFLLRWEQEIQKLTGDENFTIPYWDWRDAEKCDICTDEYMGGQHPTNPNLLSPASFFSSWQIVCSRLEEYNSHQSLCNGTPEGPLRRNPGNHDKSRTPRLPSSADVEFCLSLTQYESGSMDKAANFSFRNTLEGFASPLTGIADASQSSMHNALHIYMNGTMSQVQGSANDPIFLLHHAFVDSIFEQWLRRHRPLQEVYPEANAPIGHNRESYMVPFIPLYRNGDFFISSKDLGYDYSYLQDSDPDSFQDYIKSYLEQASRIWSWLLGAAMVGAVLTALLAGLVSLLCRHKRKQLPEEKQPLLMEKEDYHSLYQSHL
Description: • 1) Human-derived normal pigment cells were inoculated in an appropriate number and cultured for 1 day. • 2) The culture medium was replaced with culture media treated with respective samples and cultured for 72 hours. • 3) The cells were lysed, the supernatant was separated, and the absorbance value of the supernatant was measured at 475 nm at 30 minute intervals while the supernatant was allowed to react with dopa, a reactant, at 37° C. • 4) The amount of protein in the cell lysis supernatant was measured by the BCA method to correct a tyrosinase (melanin synthase) measurement value.

[6] = system: Human-derived normal fibroblasts; assay: Wrinkle improvement efficacy (collagen synthesis); format: cell-based; details: 10 μM to 20 μM, UV-irradiated fibroblasts, FIG. 6
Description: • 1) Human-derived normal fibroblasts were inoculated at 2×10^5/6 well and cultured. • 2) Culture was performed for 1 day under starvation conditions. • 3) The cells were treated with samples at different concentrations, respectively, and cultured for 24 hours. • 4) The cells were washed and then irradiated with UV, followed by culture for 48 hours. • 5) The amount of collagen expression in the cell culture medium was measured and analyzed.

Propionibacterium acnes = assay: Anti-acne efficacy (antibacterial efficacy); format: cell-based; details: 20 μM to 200 μM, 72 hours anaerobic culture, FIG. 7
Description: • 1) Propionibacterium acnes, anaerobic acne bacteria, were cultured under anaerobic culture conditions. • 2) The strain was prepared by adjusting the turbidity to McFarland standard NO. 1, followed by dilution of 1/20 in a liquid culture medium. • 3) Liquid nutrient media were treated with samples at different concentrations, respectively. • 4) After 100 μL of each of the liquid nutrient media treated with the samples was dispensed, 10 μL of the prepared strain was inoculated to each medium. • 5) After the strain was cultured for 72 hours under anaerobic culture conditions, the number of bacteria was measured and analyzed.

[7] = Measurement of absorbance (spectrophotometer); format: physicochemical; details: 10 μM to 50 μM in organic solvent; UV-A (320 nm to 400 nm), UV-B (280 nm to 320 nm), UV-C (200 nm to 280 nm), FIG. 8
Description: • 1) Resveratrone was dissolved in an organic solvent at a concentration of 10 μM to 50 μM. • 2) The absorbance of resveratrone was measured by using a spectrophotometer.

Q: With `CC(=O)/C=C/c1ccc2cc(O)cc(O)c2c1` [resveratrone, Resveratrone] as the molecule, how does the “increase in number of cells” value [1] read?
A: 20%

Q: What about the radical scavenging ability [2] of the same molecule?
A: radical scavenging ability was confirmed

Q: And the “inhibition of intracellular melanin synthesis” value (B16F10 cells [3])?
A: inhibition of melanin synthesis was confirmed

Q: And the “inhibition of extracellular melanin synthesis” value (B16F10 cells [4])?
A: inhibition of melanin synthesis was confirmed

Q: And the “inhibition of tyrosinase activity” value [5]?
A: inhibition of tyrosinase activity was confirmed

Q: What about the “increase in collagen synthesis” value [6] of the same molecule?
A: increase in collagen synthesis was confirmed

Q: And the “inhibition of bacterial growth” value (Propionibacterium acnes)?
A: inhibition of bacterial growth was confirmed

Q: What about the UV absorption [7] of the same molecule?
A: absorption was confirmed in all UV regions
